Calls of active or inactive are those of the source. The rule behind the calls is not given here.
Experiments:
MDA-MB-231 [1] = test: Antitumor activity against human MDA-MB-231 cells xenografted in NOD/SCID mouse assessed as reduction in Ki67 expression at 5 to 15 mg/kg, ip administered at 3 days interval for 24 days and measured on day 25 by immunohistochemical analysis; assay type: functional, organism-based; details: dose 5-15 mg/kg, time 25.0 day
MDA-MB-231 [2] = test: Inhibition of autophagy in human MDA-MB-231 cells assessed as increase in p62 expression at 5 to 20 uM measured after 48 hrs by Western blot analysis; assay type: functional, cell-based; details: dose 5-20 µM, DDE = dose-dependent effect
MDA-MB-231 [3] = test: Cell cycle arrest in human MDA-MB-231 cells assessed as reduction in CDK1 expression measured after 48 hrs by Western blot analysis; assay type: functional, cell-based; details: dose 5-20 µM, DDE = dose-dependent effect
MDA-MB-231 [4] = test: Cell cycle arrest in human MDA-MB-231 cells assessed as increase in CHK2 phosphorylation at Thr 68 residue measured after 48 hrs by Western blot analysis; assay type: functional, cell-based; details: dose 5-20 µM, DDE = dose-dependent effect
MDA-MB-468 [5] = test: Cell cycle arrest in human MDA-MB-468 cells assessed as increase in CHK2 phosphorylation at Thr 68 residue measured after 48 hrs by Western blot analysis; assay type: functional, cell-based; details: dose 5-20 µM, DDE = dose-dependent effect
MDA-MB-468 [6] = test: Antiproliferative activity against human MDA-MB-468 cells assessed as reduction in cell count by microscopy; assay type: functional, cell-based
MDA-MB-468 [7] = test: Cell cycle arrest in human MDA-MB-468 cells assessed as reduction in CDK2 expression measured after 48 hrs by Western blot analysis; assay type: functional, cell-based; details: dose 5-20 µM, DDE = dose-dependent effect
SW-620 = test: Antiproliferative activity against human SW-620 cells assessed as cell growth inhibition measured after 48 hrs by MTT assay; assay type: functional, cell-based; details: SW-620, 48 h
HCT-116 = test: Antiproliferative activity against human HCT-116 cells assessed as cell growth inhibition measured after 48 hrs by MTT assay; assay type: functional, cell-based; details: HCT-116, 48 h
MDA-MB-468 [8] = test: Induction of DNA damage in human MDA-MB-468 cells assessed as reduction in BRCA2 expression measured after 6 to 48 hrs by Western blot analysis; assay type: functional, cell-based; details: dose 5-20 µM, time 6-48 hrs, DDE = dose-dependent effect
[9] = biological target: Serine-protein kinase ATM (Homo sapiens) (UniProt Q13315); test: Activation of ATM phosphorylation in human MDA-MB-231 cells at 5 to 20 uM measured after 6 to 48 hrs by Western blot analysis; assay type: cell-based; details: filed as activator, dose 5-20 µM, time 6-48 hrs
Chain of Serine-protein kinase ATM (Homo sapiens) (Q13315 whole entry): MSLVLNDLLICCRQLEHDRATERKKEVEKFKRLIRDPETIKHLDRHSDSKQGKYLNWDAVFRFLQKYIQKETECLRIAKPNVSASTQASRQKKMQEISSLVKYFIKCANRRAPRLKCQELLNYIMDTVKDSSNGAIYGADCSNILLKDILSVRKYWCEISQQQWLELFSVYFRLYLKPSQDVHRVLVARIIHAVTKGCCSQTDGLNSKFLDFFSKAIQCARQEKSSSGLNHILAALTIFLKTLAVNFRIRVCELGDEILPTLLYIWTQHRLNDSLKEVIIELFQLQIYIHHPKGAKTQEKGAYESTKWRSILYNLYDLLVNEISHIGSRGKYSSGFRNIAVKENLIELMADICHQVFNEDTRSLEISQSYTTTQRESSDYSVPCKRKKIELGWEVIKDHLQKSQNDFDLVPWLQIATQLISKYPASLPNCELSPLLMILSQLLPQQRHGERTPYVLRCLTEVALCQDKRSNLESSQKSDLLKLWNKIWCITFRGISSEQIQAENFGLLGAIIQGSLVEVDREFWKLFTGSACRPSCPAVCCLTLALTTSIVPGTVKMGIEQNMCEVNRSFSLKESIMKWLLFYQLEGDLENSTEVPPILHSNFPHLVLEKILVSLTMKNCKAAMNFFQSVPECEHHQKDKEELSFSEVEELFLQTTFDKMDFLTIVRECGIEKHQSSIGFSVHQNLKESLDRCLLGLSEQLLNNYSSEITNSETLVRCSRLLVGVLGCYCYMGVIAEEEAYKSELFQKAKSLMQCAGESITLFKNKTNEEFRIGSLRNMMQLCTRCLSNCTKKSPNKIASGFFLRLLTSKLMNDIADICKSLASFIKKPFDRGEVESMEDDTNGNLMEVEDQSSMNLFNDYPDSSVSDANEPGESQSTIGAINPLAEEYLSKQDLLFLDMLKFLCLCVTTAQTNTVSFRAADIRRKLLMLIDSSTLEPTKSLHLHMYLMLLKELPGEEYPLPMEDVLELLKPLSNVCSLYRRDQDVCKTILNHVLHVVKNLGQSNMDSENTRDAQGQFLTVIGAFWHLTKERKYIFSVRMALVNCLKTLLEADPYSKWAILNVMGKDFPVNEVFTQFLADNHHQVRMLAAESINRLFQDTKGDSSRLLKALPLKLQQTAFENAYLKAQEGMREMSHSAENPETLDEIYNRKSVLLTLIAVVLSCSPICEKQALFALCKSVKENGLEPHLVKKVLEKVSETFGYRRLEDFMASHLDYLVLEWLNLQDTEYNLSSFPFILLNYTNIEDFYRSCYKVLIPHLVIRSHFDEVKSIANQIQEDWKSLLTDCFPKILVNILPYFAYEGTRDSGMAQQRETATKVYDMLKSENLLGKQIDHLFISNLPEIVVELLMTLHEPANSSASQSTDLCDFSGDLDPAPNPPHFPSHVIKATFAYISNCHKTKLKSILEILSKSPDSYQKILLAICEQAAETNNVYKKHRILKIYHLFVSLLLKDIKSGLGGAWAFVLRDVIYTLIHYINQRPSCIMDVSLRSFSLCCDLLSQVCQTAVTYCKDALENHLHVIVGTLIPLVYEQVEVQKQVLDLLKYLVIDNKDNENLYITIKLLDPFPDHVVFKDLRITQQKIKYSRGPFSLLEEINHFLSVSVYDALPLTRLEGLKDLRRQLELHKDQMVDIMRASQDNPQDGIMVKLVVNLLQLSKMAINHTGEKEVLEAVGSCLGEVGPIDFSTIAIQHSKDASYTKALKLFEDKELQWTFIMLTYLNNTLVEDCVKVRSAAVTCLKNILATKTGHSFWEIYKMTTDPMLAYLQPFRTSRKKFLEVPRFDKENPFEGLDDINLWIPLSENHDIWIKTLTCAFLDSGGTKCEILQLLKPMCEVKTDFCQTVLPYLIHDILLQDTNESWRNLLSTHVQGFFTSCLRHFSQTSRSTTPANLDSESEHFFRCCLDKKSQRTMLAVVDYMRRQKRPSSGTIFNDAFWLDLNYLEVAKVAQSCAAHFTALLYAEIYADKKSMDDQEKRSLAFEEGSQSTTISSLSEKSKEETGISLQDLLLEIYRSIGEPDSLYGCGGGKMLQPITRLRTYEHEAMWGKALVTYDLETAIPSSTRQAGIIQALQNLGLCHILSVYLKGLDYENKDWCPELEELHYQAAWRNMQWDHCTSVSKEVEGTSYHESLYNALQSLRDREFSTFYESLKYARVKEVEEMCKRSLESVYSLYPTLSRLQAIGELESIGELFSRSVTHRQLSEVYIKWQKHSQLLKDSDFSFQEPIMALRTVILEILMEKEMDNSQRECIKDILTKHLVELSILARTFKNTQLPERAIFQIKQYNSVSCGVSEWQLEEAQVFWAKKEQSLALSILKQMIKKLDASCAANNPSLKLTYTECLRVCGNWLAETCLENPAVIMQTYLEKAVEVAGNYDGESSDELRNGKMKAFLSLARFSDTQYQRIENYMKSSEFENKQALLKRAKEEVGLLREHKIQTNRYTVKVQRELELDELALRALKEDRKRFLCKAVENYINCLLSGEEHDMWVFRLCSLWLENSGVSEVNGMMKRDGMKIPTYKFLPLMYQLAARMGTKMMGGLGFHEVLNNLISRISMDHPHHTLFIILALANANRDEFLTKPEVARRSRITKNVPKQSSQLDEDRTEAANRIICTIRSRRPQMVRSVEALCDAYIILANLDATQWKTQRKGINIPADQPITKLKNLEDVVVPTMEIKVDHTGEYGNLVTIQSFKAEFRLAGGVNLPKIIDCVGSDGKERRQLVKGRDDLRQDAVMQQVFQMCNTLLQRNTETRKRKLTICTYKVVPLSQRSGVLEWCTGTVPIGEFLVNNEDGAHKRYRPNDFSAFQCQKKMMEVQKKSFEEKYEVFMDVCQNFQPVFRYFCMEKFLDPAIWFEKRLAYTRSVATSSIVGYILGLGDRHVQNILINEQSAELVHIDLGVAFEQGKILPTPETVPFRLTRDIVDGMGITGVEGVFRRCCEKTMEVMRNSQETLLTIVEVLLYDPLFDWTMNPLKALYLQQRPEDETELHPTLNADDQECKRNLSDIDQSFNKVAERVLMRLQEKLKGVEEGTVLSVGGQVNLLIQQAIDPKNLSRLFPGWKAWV

MDA-MB-231 [10] = test: Induction of DNA damage in human MDA-MB-231 cells assessed as increase in gamma-H2AX accumulation measured after 48 hrs by immunofluorescence analysis; assay type: functional, cell-based
MDA-MB-468 [11] = test: Induction of apoptosis in human MDA-MB-468 cells assessed as increase in late apoptotic cells measured after 48 hrs by Annexin V-FITC/propidium iodide staining based flow cytometry; assay type: functional, cell-based; details: dose 5-20 µM, DDE = dose-dependent effect
MDA-MB-468 [12] = test: Induction of apoptosis in human MDA-MB-468 cells assessed as increase in Bax expression measured after 48 hrs by Western blot analysis; assay type: functional, cell-based; details: dose 5-20 µM, DDE = dose-dependent effect

- IC50 (SW-620): 25.4 µM
- IC50 (HCT-116): 35.5 µM
- Activity [9]: Active
Structure (SMILES): O=C(NC1CCCCC1)c1[nH]cnc1-c1nc2ccccc2[nH]1
- Activity (MDA-MB-231 [1]): Active
- inhibition (MDA-MB-231 [2]): Dde
- Activity (MDA-MB-231 [3]): Dde
- Activity (MDA-MB-231 [4]): Dde
- Activity (MDA-MB-468 [5]): Dde
- Activity (MDA-MB-468 [6]): Active
- Activity (MDA-MB-468 [7]): Dde
- Activity (MDA-MB-468 [8]): Dde
- Activity (MDA-MB-231 [10]): Active
- Activity (MDA-MB-468 [11]): Dde
- Activity (MDA-MB-468 [12]): Dde

From ChEMBL document CHEMBL5113482, “Discovery of fused benzimidazole-imidazole autophagic flux inhibitors for treatment of triple-negative breast cancer” (Eur J Med Chem, 2022)
